The values that follow come from patent US20220125051A1, “PRE-HARVEST DESICCATION METHOD” (SYNGENTA CROP PROTECTION AG, priority 2019, published 2022).

The structures appear in SMILES notation. Values joined by “and” are separate entries in the source; they are usually repeats but may differ in a detail not shown here. Equal entries are not always repeated. Where two headings read alike, the source gives them in different places.

What all share (format): in vivo
For one assay, the system named is Brassica napus (BRSNN). Nature of the assay: Pre-harvest desiccation of crop plants. The settings on record: Table E, evaluated after 7 and 14 days (which not stated), 100=total damage to plant, 0=no damage. On the procedure:
(§1) Seeds of a variety of test species were sown in standard loam based soil in pots. After cultivation from between 21 and 28 days (post-emergence) under controlled conditions in a glasshouse (at 24/16° C., day/night; 14 hours light; 65% humidity) for warm climate species and (at 20/16° C. day/night; 15 hours light; 65% humidity) for cool climate species.
(§2) The plants were sprayed with an aqueous spray solution derived from dissolving the technical active ingredient formula in a small amount of acetone and a special solvent and emulsifier mixture referred to as IF50 (11.12% Emulsogen EL360 TM+44.44% N-methylpyrrolidone+44.44% Dowanol DPM glycol ether), to create a 50 g/I solution which was then diluted to required concentration using a solution of 1% Empicol ESC70 (Sodium lauryl ether sulphate)+1% ammonium sulphate in water as diluent.
(§3) The delivery of the aqueous spray solution was via a laboratory track sprayer which delivered the aqueous spray composition at a rate of 200 litres per hectare, using a flat fan nozzle (Teejet 11002VS) and an application volume of 200 litre/ha (at 2 bar).
(§4) The test plants were then grown in a glasshouse under controlled conditions (at 24/16° C., day/night; 14 hours light; 65% humidity) for warm climate species and (at 20/16° C. day/night; 15 hours light; 65% humidity) for cool climate species and watered twice daily. After 7 and 14 days the test was evaluated (100=total damage to plant; 0=no damage to plant).
(§5) A value of n/t indicates not tested.
(§6) Glycine Max (GLXMA), Solanum turberosum (SOLTU), Gossypium hirsutum (GOSHI), Brassica napus (BRSNN), Helianthus annus (HELAN)

The test system of assay [1] is Gossypium hirsutum (GOSHI). Nature of the assay: Pre-harvest desiccation of crop plants. The settings on record: Table E, evaluated after 7 and 14 days (which not stated), 100=total damage to plant, 0=no damage. On the procedure: as §1, §2, §3, §4, §5, §6
In assay [2] the test system is Solanum turberosum (SOLTU). Nature of the assay: Pre-harvest desiccation of crop plants. The settings on record: Table E, evaluated after 7 and 14 days (which not stated), 100=total damage to plant, 0=no damage. The protocol: as §1, §2, §3, §4, §5, §6
The next assay concerns Glycine Max (GLXMA). Nature of the assay: Pre-harvest desiccation of crop plants. The settings on record: Table E, evaluated after 7 and 14 days (which not stated), 100=total damage to plant, 0=no damage. On the procedure:
as §1, §2, §3, §4, §5, §6

For assay [3], the system named is Euphorbia heterophylla (EPHHL). Nature of the assay: Post-emergence efficacy, Method A. The settings on record: Euphorbia heterophylla, post-emergence, 312 h, evaluated after 13 days. The essentials: (§7)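 Plants grown 14 days in glasshouse (24/16 °C, 14 h light, 65% humidity) were sprayed with compound formulated in IF50. The spray was diluted in 0.25% or 1% Empicol ESC70 plus 1% ammonium sulphate. Damage was scored 13 days later on a 0-100 scale, where 100 is total damage.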

The subject of another assay is Eleusine indica (ELEIN). Nature of the assay: Post-emergence efficacy, Method A. The settings on record: Eleusine indica, post-emergence, 312 h, evaluated after 13 days. The essentials: as §7
Another assay concerns Lolium perenne (LOLPE). Nature of the assay: Post-emergence efficacy, Method A. The settings on record: Lolium perenne, post-emergence, 312 h, evaluated after 13 days. The essentials:
as §7

Assay [4] has as its system Echinochloa crus-galli (ECHCG). Description: Post-emergence efficacy, Method A. The settings on record: Echinochloa crus-galli, post-emergence, 312 h, evaluated after 13 days. The essentials: as §7
The subject of a further assay is Setaria faberi (SETFA). Description: Post-emergence efficacy, Method A. The settings on record: Setaria faberi, post-emergence, 312 h, evaluated after 13 days. The gist of the method:
as §7

The test system of assay [5] is Amaranthus palmeri (AMAPA). Description: Post-emergence efficacy, Method A. The settings on record: Amaranthus palmeri, post-emergence, 312 h, evaluated after 13 days. The gist of the method:
as §7

Assay [6] deals with Ipomoea hederacea (IPOHE). Nature of the assay: Post-emergence efficacy, Method A. The settings on record: Ipomoea hederacea, post-emergence, 312 h, evaluated after 13 days. The essentials:
as §7

Assay [7] concerns Chenopodium album (CHEAL). Description: Post-emergence efficacy, Method A. The settings on record: Chenopodium album, post-emergence, 312 h, evaluated after 13 days. The gist of the method: as §7
Assay [8] relates to Digitaria sanguinalis (DIGSA). Description: Post-emergence efficacy, Method A. The settings on record: Digitaria sanguinalis, post-emergence, 312 h, evaluated after 13 days. The gist of the method: as §7
[9] abbreviates: Application rate 500 g/Ha, 100=total damage to plant, 0=no damage to plant, read-out: Control of weed species after post-emergence application, EPHHL.
Where [10] appears, read: Application rate 500 g/Ha, 100=total damage to plant, 0=no damage to plant, read-out: Control of weed species after post-emergence application, ELEIN.
The mark [11] stands for this setting: Application rate 500 g/Ha, 100=total damage to plant, 0=no damage to plant, read-out: Control of weed species after post-emergence application, LOLPE.
The mark [12] stands for this setting: Application rate 500 g/Ha, 100=total damage to plant, 0=no damage to plant, read-out: Control of weed species after post-emergence application, ECHCG.
[13] abbreviates: Application rate 500 g/Ha, 100=total damage to plant, 0=no damage to plant, read-out: Control of weed species after post-emergence application, SETFA.
The mark [14] stands for this setting: Application rate 500 g/Ha, 100=total damage to plant, 0=no damage to plant, read-out: Control of weed species after post-emergence application, AMAPA.
Setting [15] is: Application rate 500 g/Ha, 100=total damage to plant, 0=no damage to plant, read-out: Control of weed species after post-emergence application, IPOHE.
[16] abbreviates: Application rate 500 g/Ha, 100=total damage to plant, 0=no damage to plant, read-out: Control of weed species after post-emergence application, CHEAL.
Setting [17] is: Application rate 500 g/Ha, 100=total damage to plant, 0=no damage to plant, read-out: Control of weed species after post-emergence application, DIGSA.

For the compound `O=S(=O)([O-])CC[n+]1ccc(-c2ncccn2)cn1` [Compound A1, 2-(4-pyrimidin-2-ylpyridazin-1-ium-1-yl)ethanesulfonate], the results for the “Post-emergence dessication efficacy, BRSNN” value in the assay with Brassica napus (BRSNN) (150 g/Ha), in the assay with Brassica napus (BRSNN) (300 g/Ha) and with Brassica napus (BRSNN) (600 g/Ha) were 33, 55 and 70, respectively. In addition, the results for the “Post-emergence dessication efficacy, GOSHI” value in assay [1] (150 g/Ha), in assay [1] (300 g/Ha) and in [1] (600 g/Ha) were 99, 98 and 96, respectively. Also, the “Post-emergence dessication efficacy, SOLTU” value was 38 in [2] (150 g/Ha), 90 in assay [2] (300 g/Ha) and 60 in [2] (600 g/Ha). In addition, the “Post-emergence dessication efficacy, GLXMA” value is on record as 68 in the assay on Glycine Max (GLXMA) (150 g/Ha), 94 in the assay on Glycine Max (GLXMA) (300 g/Ha) and 98 in the assay on Glycine Max (GLXMA) (600 g/Ha).

For `Cl.O=C(O)CC[n+]1ccc(-c2cccnn2)cn1.[Cl-]` [Compound A234, 3-(4-pyridazin-1-ium-3-ylpyridazin-1-ium-1-yl)propanoic acid dichloride], the “Post-emergence dessication efficacy, BRSNN” value was determined as 77 with Brassica napus (BRSNN) (75 g/Ha), 99 with Brassica napus (BRSNN) (150 g/Ha), 100 with Brassica napus (BRSNN) (300 g/Ha) and 100 with Brassica napus (BRSNN) (600 g/Ha). In addition, the “Post-emergence dessication efficacy, GOSHI” value is 33 in [1] (75 g/Ha); 100 and 50 in assay [1] (600 g/Ha). The “Post-emergence dessication efficacy, SOLTU” value in assay [2] (75 g/Ha) was found to be 7. The “Post-emergence dessication efficacy, GLXMA” value is 25 in the assay on Glycine Max (GLXMA) (75 g/Ha); 97 and 52 in the assay with Glycine Max (GLXMA) (150 g/Ha); 97 and 67 in the assay on Glycine Max (GLXMA) (300 g/Ha); 97 and 63 in the assay with Glycine Max (GLXMA) (600 g/Ha).

In the case of `O=S(=O)([O-])CC[n+]1ccc(-c2cccnn2)cn1` [Compound A5, 2-(4-pyridazin-3-ylpyridazin-1-ium-1-yl)ethanesulfonate], the “Post-emergence dessication efficacy, BRSNN” value turned out to be 50 with Brassica napus (BRSNN) (150 g/Ha), 72 in the assay on Brassica napus (BRSNN) (300 g/Ha) and 82 with Brassica napus (BRSNN) (600 g/Ha). Also, the “Post-emergence dessication efficacy, GOSHI” value amounted to 82 in assay [1] (150 g/Ha), 98 in [1] (300 g/Ha) and 100 in assay [1] (600 g/Ha). For the same compound, the “Post-emergence dessication efficacy, SOLTU” value in assay [2] (150 g/Ha) is 27; in assay [2] (300 g/Ha), 53; in [2] (600 g/Ha), 60. Further, the “Post-emergence dessication efficacy, GLXMA” value is recorded as 83 in the assay with Glycine Max (GLXMA) (150 g/Ha), 93 in the assay with Glycine Max (GLXMA) (300 g/Ha) and 100 in the assay with Glycine Max (GLXMA) (600 g/Ha).

Take `COC(=O)C[n+]1ccc(-c2ncccn2)cn1` [Compound A2, methyl 2-(4-pyrimidin-2-ylpyridazin-1-ium-1-yl)acetate bromide]: the pest or weed control at 500 g/ha came to 90% in [3] (setting [9]); 30% with Eleusine indica (ELEIN) (setting [10]); 0% in the assay with Lolium perenne (LOLPE) (setting [11]); 50% in assay [4] (setting [12]); 80% in the assay on Setaria faberi (SETFA) (setting [13]); 60% in [5] (setting [14]). The pest or weed control at 500 g/ha in [6] (setting [15]) worked out at 10%; in assay [7] (setting [16]), 20%; in assay [8] (setting [17]), 40%.

In the case of `O=C(O)CC[n+]1ccc(-c2cc(C(F)(F)F)ncn2)cn1` [Compound A119], the pest or weed control at 500 g/ha in assay [3] (setting [9]) came to 70%; with Eleusine indica (ELEIN) (setting [10]) it was 30%; with Lolium perenne (LOLPE) (setting [11]), 30%; in assay [4] (setting [12]), 30%; in the assay with Setaria faberi (SETFA) (setting [13]), 40%; in [5] (setting [14]), 100%. Moreover, the figures for the pest or weed control at 500 g/ha in assay [6] (setting [15]), in assay [7] (setting [16]) and in assay [8] (setting [17]) were 50%, 100% and 40%, respectively.

Turning to `OCCC[n+]1ccc(-c2ncccn2)cn1` [Compound A206], the pest or weed control at 500 g/ha is 60% in assay [3] (Application Rate 500 g/Ha, Method A, read-out: Control of weed species after post-emergence application, EPHHL (100=total damage to plant; 0=no damage to plant)); 10% in the assay on Eleusine indica (ELEIN) (Application Rate 500 g/Ha, Method A, read-out: Control of weed species after post-emergence application, ELEIN (100=total damage to plant; 0=no damage to plant)); 0% in the assay on Lolium perenne (LOLPE) (Application Rate 500 g/Ha, Method A, read-out: Control of weed species after post-emergence application, LOLPE (100=total damage to plant; 0=no damage to plant)); 20% in assay [4] (Application Rate 500 g/Ha, Method A, read-out: Control of weed species after post-emergence application, ECHCG (100=total damage to plant; 0=no damage to plant)); 10% in the assay on Setaria faberi (SETFA) (Application Rate 500 g/Ha, Method A, read-out: Control of weed species after post-emergence application, SETFA (100=total damage to plant; 0=no damage to plant)); 60% in [5] (Application Rate 500 g/Ha, Method A, read-out: Control of weed species after post-emergence application, AMAPA (100=total damage to plant; 0=no damage to plant)). For the same compound, the pest or weed control at 500 g/ha in assay [6] (Application Rate 500 g/Ha, Method A, read-out: Control of weed species after post-emergence application, IPOHE (100=total damage to plant; 0=no damage to plant)) is 20%; in assay [7] (Application Rate 500 g/Ha, Method A, read-out: Control of weed species after post-emergence application, CHEAL (100=total damage to plant; 0=no damage to plant)) it was 90%; in assay [8] (Application Rate 500 g/Ha, Method A, read-out: Control of weed species after post-emergence application, DIGSA (100=total damage to plant; 0=no damage to plant)), 20%.

With `O=C([O-])CC[n+]1ccc(-c2ccc(F)cn2)cn1` [Compound A71], the pest or weed control at 500 g/ha worked out at 40% in assay [3] (setting [9]); 30% with Eleusine indica (ELEIN) (setting [10]); 10% with Lolium perenne (LOLPE) (setting [11]); 30% in assay [4] (setting [12]); 30% in the assay on Setaria faberi (SETFA) (setting [13]); 100% in [5] (setting [14]). For the same compound, the figures for the pest or weed control at 500 g/ha in assay [6] (setting [15]), in assay [7] (setting [16]) and in [8] (setting [17]) were 40%, 60% and 30%, respectively.
